How the values were obtained:
ulcerative colitis = assay: A case of ulcerative colitis improved by hydrogen inhalation (single patient case report); assay type: in vivo, human
Procedure: From around January 2018, the patient was taking a therapeutic agent for ulcerative colitis but was distressed because the disease was not cured with cyclic improvement and worsening. Additionally, the patient became depressed and gloomy, suffering insomnia and weight loss, because of the prolonged symptoms of ulcerative colitis. […] The patient drank two 500 mL PET bottles of hydrogen water per day.

[1] = room temperature, normal pressure; also printed as 1.6 mg/L; cited from earlier work
[2] = known; versus H2; cited from earlier work
[3] = around June 9, six days after initiation of hydrogen gas inhalation plus hydrogen water

SMILES: [HH] [hydrogen gas, molecular hydrogen]
- general condition (ulcerative colitis; [3]): recovered
- sleep condition (ulcerative colitis; [3]): improved
- body weight (ulcerative colitis; by Aug. 22, 2019): increased to the healthy weight before the onset of the disease
- hemorrhage (ulcerative colitis; by Aug. 22, 2019 (end of inhalation therapy)): no hemorrhage was found
- hemorrhage (ulcerative colitis; by Jul. 31, 2019): no hemorrhage was found except that blood was attached to the stool only on the day after the patient had drunk alcohol
- frequency of defecation and patient's vigor (ulcerative colitis; by Jun. 17, 2019): returned to the levels before the onset of the disease
- stool consistency (had been watery) (ulcerative colitis; by Jun. 17, 2019): became solid
- hemorrhage during defecation (ulcerative colitis; by Jun. 17, 2019 (inhalation started Jun. 3, 2019)): further decreased
- endoscopy: hemorrhage in the rectum (had been filled with blood) (ulcerative colitis; endoscopy on Sep. 25, 2019): no hemorrhage in the rectum
- endoscopy: wall of the small and large intestines (ulcerative colitis; endoscopy on Sep. 25, 2019): recovered completely
- endoscopy: several polyps found in the stomach (ulcerative colitis; endoscopy on Sep. 25, 2019, inhalation of hydrogen gas and drinking of hydrogen water): disappeared
- volume of melena during defecation (ulcerative colitis; person, ulcerative colitis, around June 9, six days after initiation of hydrogen gas inhalation (approx. 5.0%, 1-3 h/day) plus hydrogen water 7 ppm, two 500 mL bottles/day): began to decrease
- concentration of hydrogen dissolved in water [1]: approximately 1.6 ppm

SMILES: [2H][2H] [D2, deuterium]
- superoxide eliminating effect compared with H2 [2]: stronger

Reference: patent US20210220392A1, “MOLECULAR HYDROGEN-CONTAINING COMPOSITION FOR PREVENTION AND/OR IMPROVEMENT OF INFLAMMATORY BOWEL DISEASE” (MiZ Company Limited, priority 2020, published 2021)
